Data published in patent US20230295201A1 (Gilead Sciences, Inc., priority 2020, published 2023).
Like-named read-outs stand apart in the source and are kept apart here.

What was measured:
[1] = system: DENV2 replicon; test: DENV-2 Huh-7 Rep EC50 (replicon luminescence); assay type: cell-based; settings: Dengue virus, DENV2, Huh-7, 48 h, read-out: DENV-2 Huh-7 Rep EC50
In short: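 EC50 derived from luminescence dose-response, normalised to DMSO-only 0% inhibition wells, after 1.5 h with EnduRen substrate. Compounds were first exposed for 48 h at 37° C to DENV2 replicon Huh-7 cells (5,000/well).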

[2] = system: RSV A2; test: RSV NHBE EC50 (RSV A2 antiviral assay in normal human bronchial epithelial cells); assay type: cell-based; settings: human respiratory syncytial virus, NHBE, 96 h, read-out: RSV NHBE EC50
[3] = system: RSV strain A2; test: RSV HEp-2 EC50 (infectious cytopathic cell protection assay); assay type: cell-based; settings: human respiratory syncytial virus, HEp-2, 96 h, read-out: RSV HEp-2 EC50
In short: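 Percent inhibition of RSV-induced cytopathic effect came from remaining cell viability (CellTiter-Glo luminescence) after 4 days at 37° C. Compounds in 3-fold serial dilutions were exposed to an infectious mix of titered A2 virus and HEp-2 cells at 50,000/ml, with 0% and 100% inhibition control standards.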

[4] = HEp-2 CC50 (cytotoxicity, Cell-Titer Glo); assay type: cell-based; settings: human; uninfected HEp-2 cells, 4-5 days
Protocol: The same protocol as for the determination of antiviral activity is used for the measurement of compound cytotoxicity except that the cells are not infected with RSV. Instead, an uninfected cell mixture at the same density is added at 20 ul/well to plates containing prediluted compounds, also at 100 nL/sample. Assay plates are then incubated for 4 days followed by a cell viability test using the same CellTiter Glo reagent addition and measurement of luminescent readouts.

[5] = system: HRV16; test: HRV16 HELA EC50 (cytopathic effect in H1-HeLa cells); assay type: cell-based; settings: 96 h, read-out: HRV16 HELA EC50
In short: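 Read-out is luminescent cell viability (CellTiter-Glo) after 96 h of infection at 33 °C, scaled between uninfected and infected-untreated wells. Before infection with titrated virus, compounds went onto H1-HeLa cells as triplicate 3-fold dilution series.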

[6] = in vitro; settings: human
Protocol: (§1) HEp-2 (1.5×10^3 cells/well) and MT-4 (2×10^3 cells/well) cells were plated in 384-well plates and incubated with the appropriate medium containing 3-fold serially diluted compound ranging from 15 nM to 100,000 nM. Cells were cultured for 4-5 days at 37° C. Following the incubation, the cells were allowed to equilibrate to 25° C., and cell viability was determined by adding Cell-Titer Glo viability reagent. The mixture was incubated for 10 min, and the luminescence signal was quantified using an Envision plate reader. Untreated cell and cells treated at 2 μM puromycin (Sigma, St. Louis, MO) serve as 100% and 0% cell viability control, respectively.

[7] = in vitro; settings: human; remark: listed apart in the source
[8] = MT4 CC50 (cytotoxicity, Cell-Titer Glo); settings: human
Protocol: as §1

[9] = HELA CC50 (cytotoxicity); settings: human, HeLa cells

Work on `CC(C)C(=O)O[C@H]1[C@H](c2ccc3c(N)ncnn23)O[C@](C#N)(CO[P@@](=O)(N[C@@H](C)C(=O)OC2CCCCC2)Oc2ccccc2)[C@H]1O` (single isomer, unassigned) [Example 205] yielded an EC50 ([1]; Huh-7 replicon cells, 48 hours) of 6100 nM, an EC50 ([2]; NHBE cells, RSV A2, 4 days) of 27 nM and an EC50 ([3]; HEp-2 cells, RSV A2, 4 days) of 101 nM. For the same compound, the CC50 [4] was 58600 nM and the EC50 ([5]; H1-HeLa cells, 33° C.) was 417 nM.
Compound `CC(C)C(=O)O[C@H]1[C@@H](O)[C@H](c2ccc3c(N)ncnn23)O[C@]1(C#N)CO[P@@](=O)(N[C@@H](C)C(=O)OC1CCCCC1)Oc1ccccc1` (single isomer, unassigned) [Example 206] has an EC50 ([2]; NHBE cells, RSV A2, 4 days) of 62 nM, an EC50 ([3]; HEp-2 cells, RSV A2, 4 days) of 85 nM and a CC50 [4] of 55200 nM. For the same compound, the CC50 [6] was 16600 nM.
`CC(C)OC(=O)[C@H](C)N[P@](=O)(OC[C@@]1(C#N)O[C@@H](c2ccc3c(N)ncnn23)[C@H](OC(=O)C(C)(C)C)[C@@H]1O)Oc1ccccc1` (single isomer, unassigned) [Example 238] gave an EC50 ([1]; Huh-7 replicon cells, 48 hours) of 9710 nM, a CC50 [7] of over 50000 nM and an EC50 ([2]; NHBE cells, RSV A2, 4 days) of 41 nM. For the same compound, the EC50 ([3]; HEp-2 cells, RSV A2, 4 days) was 91 nM, the CC50 [4] was over 50000 nM and the EC50 ([5]; H1-HeLa cells, 33° C.) was 731 nM. The CC50 [6] was 45000 nM.
In the case of `CC(C)OC(=O)[C@H](C)N[P@](=O)(OC[C@@]1(C#N)O[C@@H](c2ccc3c(N)ncnn23)[C@H](O)[C@@H]1OC(=O)C(C)(C)C)Oc1ccccc1` (single isomer, unassigned) [Example 239], the EC50 ([1]; Huh-7 replicon cells, 48 hours) is reported as 25400 nM, the CC50 [7] is reported as over 50000 nM and the EC50 ([2]; NHBE cells, RSV A2, 4 days) is reported as 54 nM. For the same compound, the EC50 ([3]; HEp-2 cells, RSV A2, 4 days) was 148 nM, the CC50 [4] was over 50000 nM and the EC50 ([5]; H1-HeLa cells, 33° C.) was 1120 nM. For the same compound, the CC50 [6] was over 50000 nM.
Work on `CC(C)OC(=O)[C@H](C)N[P@](=O)(OC[C@@]1(C#N)O[C@@H](c2ccc3c(N)ncnn23)[C@H](OC(=O)C(C)C)[C@@H]1O)Oc1ccccc1` (single isomer, unassigned) [Example 240] yielded an EC50 ([1]; Huh-7 replicon cells, 48 hours) of 10600 nM, a CC50 [7] of over 50000 nM and an EC50 ([2]; NHBE cells, RSV A2, 4 days) of 190 nM. It also gave an EC50 ([3]; HEp-2 cells, RSV A2, 4 days) of 166 nM, a CC50 [4] of over 50000 nM and an EC50 ([5]; H1-HeLa cells, 33° C.) of 1310 nM. It also gave a CC50 [6] of over 50000 nM.
`CC(C)OC(=O)[C@H](C)N[P@](=O)(OC[C@@]1(C#N)O[C@@H](c2ccc3c(N)ncnn23)[C@H](O)[C@@H]1OC(=O)C(C)C)Oc1ccccc1` (single isomer, unassigned) [Example 241] showed an EC50 ([1]; Huh-7 replicon cells, 48 hours) of 15500 nM, an EC50 ([2]; NHBE cells, RSV A2, 4 days) of 190 nM and an EC50 ([3]; HEp-2 cells, RSV A2, 4 days) of 293 nM. The CC50 [4] was over 50000 nM and the CC50 [6] was over 50000 nM.
Work on `CCOC(=O)c1ccccc1OP1(=O)OC[C@@]2(C#N)O[C@@H](c3ccc4c(N)ncnn34)[C@H](OC(=O)CC)[C@@H]2O1` (stereo partly drawn) [Example 230] yielded an EC50 [1] of over 50000 nM, a CC50 [8] of over 50000 nM and an EC50 [2] of over 5000 nM. For the same compound, the CC50 [9] was over 50000 nM, the EC50 [3] was 1650 nM and the CC50 [4] was over 50000 nM. For the same compound, the EC50 [5] was 11500 nM.
Compound `CCOC(=O)[C@H](C)N[P@](=O)(OC[C@@]1(C#N)O[C@@H](c2ccc3c(N)ncnn23)[C@@H]2OC(OCC)O[C@@H]21)Oc1ccccc1` (stereo partly drawn) [Example 233, ethyl ((S)-(((3aS,4R,6S,6aS)-6-(4-aminopyrrolo[2,1-f][1,2,4]triazin-7-yl)-4-cyano-2-ethoxytetrahydrofuro[3,4-d][1,3]dioxol-4-yl)methoxy)(phenoxy)phosphoryl)-L-alaninate] has an EC50 ([1]; Huh-7 replicon cells, 48 hours) of 35800 nM, an EC50 ([2]; NHBE cells, RSV A2, 4 days) of over 4640 nM and an EC50 ([3]; HEp-2 cells, RSV A2, 4 days) of 1750 nM. It also gave a CC50 [4] of over 50000 nM and an EC50 ([5]; H1-HeLa cells, 33° C.) of 3350 nM.
For `COC(=O)[C@H](C)N[P@](=O)(OC[C@@]1(C#N)O[C@@H](c2ccc3c(N)ncnn23)[C@H](OC(=O)C(C)C)[C@@H]1O)Oc1ccccc1` [Example 250, (2S,3R,4S,5R)-2-(4-aminopyrrolo[2,1-f][1,2,4]triazin-7-yl)-5-cyano-4-hydroxy-5-((((S)—(((S)-1-methoxy-1-oxopropan-2-yl)amino)(phenoxy)phosphoryl)oxy)methyl)tetrahydrofuran-3-yl isobutyrate], the EC50 ([2]; NHBE cells, RSV A2, 4 days) was 51 nM, the EC50 ([3]; HEp-2 cells, RSV A2, 4 days) was 69 nM and the CC50 [4] was over 50000 nM. For the same compound, the EC50 ([5]; H1-HeLa cells, 33° C.) was 1180 nM.
